In brackets after ≈: the same amount, converted by molar mass. Several values for one entry are separate records, joined by “and”; a condition that tells them apart may be missing. Identical values can stand only once. Like-named read-outs stand apart in the source and are kept apart here.
What was measured:
[1] = system: A. baumannii biofilm; test: EBEC, high number biofilms on PEEK membranes (10^9 to 10^2 CFU/PEEK membrane in 24 hours); type: cell-based, Acinetobacter baumannii; details: Table 4
Method: (§1) In addition to determining the MIC and the MBEC of polyamine compounds against planktonic bacteria and low number biofilms, our group wanted to determine the efficacy of polyamine compounds against high number biofilms. To do so, biofilms were grown on the surface of polyetheretherketone (PEEK) membranes using a membrane biofilm reactor. This reactor is similar to the CDC biofilm reactor, but rather than growing biofilms on coupon surfaces, the reactor was modified to hold PEEK membranes. In short, to grow biofilms within this system, 500 mL of brain heart infusion (BHI) broth were inoculated with 1 mL of a 0.5 McFarland. The reactor was placed on a hot plate set at 34° C. and the bacteria were grown under batch conditions for 24 hours. Following this protocol, biofilms typically grow to 10^9 CFU/PEEK membrane. […] A solution of 10% BHI was then flowed through the reactor at a rate of 6.94 mL/min for an additional 24 hours. PEEK membranes were then removed and placed into 2 mL of CAMHB that contained a desired concentration of polyamine compound or antibiotic. The EBEC was defined as the concentration of antimicrobial required to reduce a biofilm from approximately 10^9 CFU/PEEK membrane to approximately 10^2 CFU/PEEK membrane in a 24-hour period.
(§2) In addition to determining the MIC and the MBEC of compounds against planktonic bacteria and low number biofilms, the efficacy of the compounds of the invention against high number biofilms is determined. To do so, biofilms are grown on the surface of PEEK membranes using a membrane biofilm reactor (Williams, D. L., Haymond, B. S. & Bloebaum, R. D. Use of delrin plastic in a modified CDC biofilm reactor. Res J Microbiol 6, 425-429 (2011); Williams, D. L., Woodbury, K. L., Haymond, B. S., Parker, A. E. & Bloebaum, R. D. A modified CDC biofilm reactor to produce mature biofilms on the surface of PEEK membranes for an in vivo animal model application. Curr Microbiol 62, 1657-1663 (2011); Williams, D. L. et al., In Vivo Efficacy of a Silicone—Cationic Steroid Antimicrobial Coating to Prevent Implant-Related Infection. Biomaterials 33, 8641-8656 (2012); Williams, D. L. et al., Experimental model of biofilm implant-related osteomyelitis to test combination biomaterials using biofilms as initial inocula. J Biomed Mat Res A 100, 1888-1900 (2012)). This reactor is similar to the CDC biofilm reactor, but rather than growing biofilms on coupon surfaces, the reactor was modified to hold PEEK membranes. In short, to grow biofilms within this system, 500 mL of brain heart infusion (BHI) broth is inoculated with 1 mL of a 0.5 McFarland. The reactor is placed on a hot plate set at 34° C. and the bacteria grown under batch conditions for 24 hours. A solution of 10% BHI will then be flowed through the reactor at a rate of 6.94 mL/min for an additional 24 hours. Following this protocol, biofilms typically grow to 10^9 CFU/PEEK membrane. PEEK membranes is removed and placed into 2 mL of CAMHB that contain a desired concentration of the test compound. The EBEC is defined as the concentration of antimicrobial required to reduce a biofilm from approximately 10^9 CFU/PEEK membrane to approximately 10^2 CFU/PEEK membrane in a 24-hour period.
EBEC data were collected to determine the efficacy of CZ-52, CZ-58 and traditional antibiotics against high number biofilms containing approximately 10^9 CFU grown on the surface of a polyetheretherketone (PEEK) membrane. […] In contrast, at 250 μg/mL CZ-52 was able to reduce MRSA biofilms by greater than 7 log10 units in a 24-hour period. Although the MIC of CZ-58 was lower against MRSA compared to A. baumannii, CZ-58 had greater activity against biofilms of A. baumannii than against MRSA biofilms in the EBEC assay. […] Although the MIC of CZ-58 was “high” compared to MICs of traditional antibiotics, the efficacy against biofilms was promising.

[2] = system: A. baumannii biofilm; test: MBEC, MBEC Inoculation Tray by Innovotech (to 10^2 CFU/peg in 24 hours); type: cell-based, Acinetobacter baumannii; details: Table 4
Description: To determine the MBEC of each polyamine compound, the MBEC Inoculation Tray by Innovotech, formerly known as the Calgary biofilm device, was used. Within this device, biofilms grow on the surface of polystyrene pegs, 96 of which are attached to a lid. These pegs are inserted into a flat bottom 96-well plate. In this instance, the MBEC of a molecule was defined as the concentration of compound (in μg/mL) required to reduce 10^5 or 10^6 CFU/peg (biofilm levels varied by isolate) to 10^2 CFU/peg in a 24-hour period.
Following the manufacturer's guidelines, biofilms were grown on the surface of each peg by first making a 0.5 McFarland of each isolate. The 0.5 McFarland was diluted 1:100 in CAMHB. Into each well of a flat bottom 96-well plate, 150 μL of broth were pipetted. The plate was shaken at 100 rpm for 24 hours (P. aeruginosa and A. baumannii) or 48 hours (MRSA). The pegs were then placed into a separate flat bottom 96-well plate for 10 seconds with 200 μL of phosphate buffered saline (PBS) in each well to remove nonadherent cells. The lid was then placed into a 96-well plate that contained varying concentrations of antimicrobial with 200 μL per well. The plate was incubated for 24 hours at 37° C. after which time 100 μL of broth were plated on TSA. TSA plates were incubated 24 hours at 37° C. and the number of CFU counted to calculate the CFU/peg. In this instance, the MBEC was defined as the concentration of antimicrobial required to reduce 10^5 or 10^6 CFU/peg to 10^2 CFU/peg in a 24 hour period.
To determine the MBEC, the MBEC Inoculation Tray by Innovotech, formerly known as the Calgary biofilm device, is used. Within this device, biofilms grow on the surface of polystyrene pegs, 96 of which are attached to a lid. These pegs are inserted into a flat bottom 96-well plate. In this instance, the MBEC of a molecule is defined as the concentration of compound required to reduce approximately 10^6 CFU/peg to approximately 10^2 CFU/peg in a 24-hour period.
Following the manufacturer's guidelines, biofilms are grown on the surface of each peg by first making a 0.5 McFarland of A. baumannii. The 0.5 McFarland is diluted 1:100 in CAMHB broth. Into each well of a flat bottom 96-well plate, 150 μL of broth is pipetted. The plate is shaken at 100 rpm for 24 hours. The pegs are placed into a separate flat bottom 96-well plate for 10 seconds with 200 μL of phosphate buffered saline (PBS) in each well to remove nonadherent cells. The lid is placed into a 96-well plate that contains varying concentrations of antimicrobial with 200 μL of broth per well. The plate is incubated for 24 hours at 37° C. after which time 100 μL of broth is plated on TSA. TSA plates is incubated 24 hours at 37° C. and the number of CFU counted to calculate the CFU/peg.
MBEC data were collected using the MBEC Inoculation Tray by Innovotech. The MBEC was defined in these preliminary results as the concentration of antimicrobial required to reduce 10^5 or 10^6 CFU/peg to 10^2 CFU/peg in a 24-hour period.

[3] = system: MRSA biofilm; test: as above; type: cell-based, methicillin-resistant Staphylococcus aureus; details: Table 4
[4] = system: biofilm of MRSA; test: Combination treatment: dispersal of MRSA biofilm; type: cell-based, methicillin-resistant Staphylococcus aureus; details: CZ-7 at […] mixed with chlorhexidine gluconate at […]; biofilm of 10^11 cells; within one hour
[5] = system: MRSA biofilm; test: EBEC, high number biofilms on PEEK membranes (10^9 to 10^2 CFU/PEEK membrane in 24 hours); type: cell-based, methicillin-resistant Staphylococcus aureus; details: for EBEC, MRSA: Table 4
Method: as §1, §2
EBEC data were collected to determine the efficacy of CZ-52, CZ-58 and traditional antibiotics against high number biofilms containing approximately 10^9 CFU grown on the surface of a polyetheretherketone (PEEK) membrane.

[6] = system: MRSA biofilm; test: MBEC assay (Calgary Biofilm Device), 100% eradication (Example 2); type: cell-based, methicillin-resistant Staphylococcus aureus; details: eradicate 100% of detectable biofilm
Method: In addition to determining the MIC, the minimum biofilm eradication concentration (MBEC) of PBC-51 was also determined. The MBEC was determined using the MBEC assay, formerly known as the Calgary Biofilm Device, developed by Innovotech. In this instance, the MBEC was defined as the amount of antimicrobial required to eradicate 100% of detectable biofilm after being grown in the MBEC device. To grow the biofilms within this device, 150 μL of solution containing a concentration of 10^5 cells/mL were inoculated into each well of a 96-well plate. A lid containing 96 pegs was placed onto the plate and incubated for 24 hours at 37° C. while being shaken at 110 rpm. Biofilms developed on the surface of the polystyrene pegs within the 96-well plate. After 24 hours, each peg contained between 10^5 and 10^6 cells in well-established biofilms. The lid with pegs was transferred to a 96-well plate that contained 200 μL of varying concentrations of the compound and was incubated at 37° C. for an additional 24 hours. The plate was then sonicated, and the biofilms quantified using a 10-fold dilution series to determine the MBEC.

[7] = system: MRSA; test: MIC in CAMHB, 96-well plate (10^5 to 10^2 CFU/mL in 24 hours); type: cell-based, methicillin-resistant Staphylococcus aureus; details: Table 4
Method: To determine the MIC of polyamine compounds, the protocol described herein was used.
In brief, a 0.5 McFarland of each bacterial isolate was made. A 0.5 McFarland is a measure of turbidity in a liquid sample that contains approximately 1×10̂^8 CFU/mL. The 0.5 McFarland standard was diluted in cation adjusted Mueller Hinton Broth (CAMHB), and […], of broth were added to a well of a 96-well plate. In addition, 50 μL of CAMHB that contained a desired concentration of antimicrobial were also added to the well for a final volume of 100 and a final concentration of approximately 5×10^4 CFU/well (which equated to approximately 5×10^5 CFU/mL). Each well contained a desired amount of polyamine compound in order to experimentally determine the MIC. Each 96-well plate was incubated at 37° C. for 24 hours. The contents of each well were plated on tryptic soy agar (TSA). TSA plates were incubated for 37° C. for 24 hours after which the number of CFU were counted and used to calculate the CFU/mL that remained after exposure to varying concentrations of compound. This procedure was repeated n=8 times for each concentration of antimicrobial. […]

[8] = system: MRSA biofilm; test: EBEC on PEEK membranes, 100% eradication (Example 2); type: cell-based, methicillin-resistant Staphylococcus aureus; details: PEEK membrane, eradicate all detectable amounts (100%)
Method: The fourth test that was performed was the effective biofilm eradication concentration (EBEC). To determine the EBEC, biofilms of MRSA and P. aeruginosa ATCC 27853 were grown on the surface of PEEK membranes using a previously established protocol. Briefly, 500 mL of brain heart infusion (BHI) broth were inoculated with 10^5 cells/mL of MRSA or P. aeruginosa. BHI broth was placed into a membrane biofilm reactor and placed on a hot plate set at 34° C. for 24 hours with a stir bar rotating at 130 rpm. Following the initial 24-hour growth period, a 10% BHI broth solution was flowed through the reactor at a rate of 6.944 mL/min for another 24 hours. After 48 hours of growth, each PEEK membrane had biofilm growth on it. In this experiment, there were ˜2×10^11 cells of MRSA per PEEK membrane and −2×10^10 cells of P. aeruginosa per PEEK membrane. The EBEC was defined as the concentration of the compound that was required to eradicate all detectable amounts (100%) of bacteria within the biofilms.

Row | SMILES | EBEC, A. baumannii [1] | MBEC, A. baumannii [2] | MBEC, MRSA [3] | dispersal of MRSA biofilm [4] | EBEC, MRSA [5] | MBEC [6] | reduction of MRSA biofilms [5] | reduction of MRSA biofilms ([5]; at 25,000 μg/mL) | MIC, MRSA [7] | EBEC [8]
1 | NCCCNCCCNCc1ccccc1 [CZ-7, benzylnorspermidine] | > 10,000 μg/mL and > 45,180 μM | > 500 μg/mL and > 2,259 μM | > 500 μg/mL and > 2,259 μM | significant dispersal | > 5,000 μg/mL and > 22,590 μM | – | – | – | – | –
2 | CN[C@H](CC(C)C)C(=O)N[C@H]1C(=O)N[C@@H](CC(N)=O)C(=O)N[C@H]2C(=O)N[C@H]3C(=O)N[C@H](C(=O)N[C@H](C(=O)O)c4cc(O)cc(O)c4-c4cc3ccc4O)[C@H](O)c3ccc(c(Cl)c3)Oc3cc2cc(c3O[C@@H]2O[C@H](CO)[C@@H](O)[C@H](O)[C@H]2O[C@H]2C[C@](C)(N)[C@H](O)[C@H](C)O2)Oc2ccc(cc2Cl)[C@H]1O [Vancomycin, reference compound] | – | – | > 500 μg/mL and > 345 μM | – | > 25,000 μg/mL | > 500 μg/mL and > 336.50 μM | < 1 log10 unit | < 1 log10 unit | 10 µg/mL (≈ 6.9 µM) | > 20,000 μg/mL and > 13,460 μM

— patent US20150274639A1, “METHODS OF USE FOR COMPOSITIONS COMPRISING A BIOCIDAL POLYAMINE” (Curza Global, LLC, priority 2013, published 2015)
